Results: patent US10793567B2, “Bicyclic inhibitors of histone deacetylase” (Rodin Therapeutics, Inc., priority 2017, dated 2020)
“And” between values parts separate entries of the source, which are not always exact repeats. Equal entries are not always repeated. Where two headings read alike, the source gives them in different places.

How the values were obtained:
[1] = system: human erythroid progenitors (CFU-E, BFU-E); assay: Erythroid CFU assay (colony forming cell assay, bone marrow); format: cell-based; settings: 14 days in culture
Method: (§1) Compounds were tested to evaluate the potential effects on human erythroid and myeloid progenitors using colony forming cell assays. Clonogenic progenitors of human erythroid (CFU-E, BFU-E), granulocyte-monocyte (CFU-GM) and multipotential (CFU-GEMM) lineages were assessed in a semi-solid methylcellulose-based media formulation containing rhlL-3 (10 ng/mL), rhGM-SCF (10 ng/mL), rhSCF (50 ng/mL) and Epo (3 U/mL).
(§2) Normal human bone marrow light density cells derived from normal bone marrow (NorCal Biologics, California), were stored in the gaseous phase of liquid nitrogen (−152° C.) until required for the assay. On the day of the experiment, the cells were thawed rapidly, the contents of each vial was diluted in 10 mL of Iscove's modified Dulbecco's medium containing 10% fetal bovine serum (IMDM+10% FBS) and washed by centrifugation (approximately 1200 r.p.m. for 10 minutes, room temperature). The supernatant was discarded and the cell pellets resuspended in a known volume of IMDM+10% FBS. A cell count (3% glacial acetic acid) and viability assessment (trypan blue exclusion test) was performed for the bone marrow sample.
(§3) On the day of the experiment, the compounds were dissolved in DMSO to a stock concentration of 10 mM. Serial dilutions were prepared from the stock concentration to achieve concentrations of 2 and 0.4 mM. When added to the methylcellulose-based media at 1:1000 (v/v), the final test concentrations of 10, 2 and 0.4 μM were achieved. Additionally, 5-FU was evaluated at 1.0, 0.1 and 0.01 μg/mL.
(§4) Clonogenic progenitors of the human erythroid (CFU-E and BFU-E) and myeloid (CFU-GM) lineages were set up in the methylcellulose-based media formulations described above. All compounds were added to the medium to give the final desired concentrations (10, 2 and 0.4 μM). 5-Fluorouracil (Sigma Aldrich) was used as a positive control for progenitor proliferation (inhibition of colony growth) and was introduced to the human bone marrow cultures at 1.0, 0.1, and 0.01 μg/mL. Solvent control cultures (containing no compound but 0.1% DMSO) as well as standard controls (containing no compound and no DMSO) were also initiated.
(§5) Human myeloid and erythroid progenitor assays were initiated at 2.0×10^4 cells per culture. Following 14 days in culture, myeloid and erythroid colonies were assessed microscopically and scored by trained personnel. The colonies were divided into the following categories based on size and morphology: CFU-E, BFU-E, CFU-GM and CFU-GEMM.
(§6) The mean±one standard deviation of three replicate cultures was calculated for progenitors of each category (CFU-E, BFU-E, etc.). Two-tailed t-tests were performed to assess if there was a difference in the number of colonies generated between solvent control and treated cultures. Due to the potential subjectivity of colony enumeration, a p value of less than 0.01 is deemed significant. To calculate the concentration of 50% inhibition of colony growth (IC50) for each compound, a dose response curve was generated plotting the log of the compound concentration versus the percentage of control colony growth using XLfit software (IDBS). The concentration of 50% inhibition of colony growth (IC50) was calculated based on the sigmoid curve fit using Dose-Response, One-Site Model formula: y=A+[(B−A)/(1+((C/x)^D))], where A=the initial value (baseline response), B=maximum response, C=center (drug concentration that provokes a response halfway between A and B) and D=slope of the curve at midpoint. Further, plots and additional dose response curves were generated using GraphPad Prism 7.0.
(§7) Erythroid (CFU-E and BFU-E), myeloid (CFU-GM) and multi-potential (CFU-GEMM) colony enumeration was performed by trained personnel. The distribution of colony types as well as general colony and cellular morphology was analyzed. For statistical analysis colony numbers in compound treated cultures were compared to the solvent control cultures. […]

[2] = system: human myeloid progenitors (CFU-GM); assay: Myeloid CFU assay (colony forming cell assay, bone marrow); format: cell-based; settings: 14 days in culture
Method: as §1, §2, §3, §4, §5, §6, §7

[3] = Brain and plasma exposure following IV and PO administration to mice; format: in vivo; settings: for Projected free brain @ 10 mpk / Brain Cmax @ 10 mpk: 10 mg/kg PO; for half-life / clearance: mouse, plasma; for clearance: read-out: IV PK Cl (converted); for brain Cmax exposure, fold higher than comparator 1 / projected free brain concentration, fold higher than comparator 1: comparator 1 data scaled for comparison
Method: Compounds were dosed in mice at either 10 mg/kg or 30 mg/kg PO, and were dosed at 1 mg/kg IV. Three animals for collection at each time point for plasma via bleeding at 0.25, 0.5, 1, 4, 12 and 24 h. Terminal bleeding for plasma and sampling for brain at 0.25, 0.5, 1, 4, 12 and 24 h (also three animals per brain exposure time point group). Total of six time points for plasma and six time points for brain.
Plasma: The animal was restrained manually at the designated time points, approximately 150 μL blood/time point was collected into K2EDTA tube via retro orbital puncture or cardiac puncture under anesthesia with Isoflurane. The blood sample was centrifuged (2000 g, 4° C., 5 min) to generate plasma within 30 min after bleeding.
Brain: At the designated time points, a mid-line incision was made in the animals scalp and the skin was retracted. Using small bone cutters and rongeurs, removed the skull overlying the brain. Removed the brain using a spatula and rinse with cold saline. Placed the brain in screw-top tubes, and then stored the tubes under −70° C. until analysis.

[4] = iv, 1 mg/kg, mice, 1 mg/kg IV, read-out: IV PK T1/2 (converted)
[5] = po, 10 mg/kg, mice, PO, read-out: PO T1/2 (converted)

Compound | Erythroid % control @ 10 uM dose [1] [%] | Myeloid % control @ 10 uM dose [2] [%] | Projected free brain @ 10 mpk ([3]; mice) | Brain Cmax @ 10 mpk ([3]; mice) | half-life [3, 4] [h] | half-life [3, 5] [h] | clearance ([3]; mice, 1 mg/kg IV) [mL/min/kg] | brain Cmax exposure, fold higher than comparator 1 [3] [fold] | projected free brain concentration, fold higher than comparator 1 [3] [fold] | PO T1/2 ([3]; mice, PO) [h]
CCc1cc2c(cn1)CN(C(=O)Nc1nc(-c3cccnc3)ccc1N)C2 [Compound 8] | 98 | 102 | 0.222 µM | 279 ng/g | 0.628 | 1.27 | 35.2 | – | – | –
CCc1ncc2c(n1)CN(C(=O)Nc1nc(-c3ccc(F)cc3)ccc1N)C2 [Compound 17] | 59.6 | 79.1 | 0.568 µM | 1241 ng/g | 2.07 | 2.54 | 24.8 | ~7 | 5 | –
CCc1ncc2c(n1)CN(C(=O)Nc1nc(-c3cccs3)ccc1N)C2 [Compound 3] | 46.6 | 89.4 | 0.387 µM | 526 ng/g | 0.737 | 1.48 | 25 | – | – | –
Cc1ncc2c(n1)CN(C(=O)Nc1nc(-c3ccc(F)s3)ccc1N)C2 [Compound 2] | 40 | 87 | 0.438 µM | 760 ng/g | 0.643 | 1.25 | 67.7 | – | – | –
Cc1cc2c(cn1)CN(C(=O)Nc1nc(-c3cccnc3)ccc1N)C2 [Compound 12] | 93 | 104 | 0.386 µM | 237 ng/g | 0.513 | 3.67 | 29.5 | – | – | –
COCCn1cc2c(n1)CN(C(=O)Nc1nc(-c3ccc(F)cc3F)ccc1N)C2 [Compound 9] | 40.4 | 62.8 | 0.881 µM and 0.795 µM | 1533 ng/g and 1383 ng/g | 0.644 | 1.39 | 27.8 | – | – | 1.01
Cc1ncc(-c2ccc(N)c(NC(=O)N3Cc4cn(CC(F)F)nc4C3)n2)s1 [Compound 5] | – | – | 0.302 µM | 277 ng/g | 2.81 | 2.33 | 5.9 | – | – | –
Nc1ccc(-c2ccc(F)cc2)nc1NC(=O)N1Cc2cn(C3COC3)nc2C1 [Compound 1] | 37 | 54 | 0.324 µM | 636 ng/g | 3.11 | 2.05 | 7.02 | – | – | –
Cc1ncc2c(n1)CN(C(=O)Nc1nc(-c3ccc(F)cc3)ccc1N)C2 [Compound 14] | 53 | 112 | 0.403 µM | 633 ng/g | 2.09 | 3.22 | 14.3 | 4 | 4 | –
